Test system: UVB-induced phospho c-jun expression in skin
Test: Phospho c-Jun immunohistochemistry of UVB-irradiated skin biopsies: histopathology scores (scale 0-4)
Type: in vivo, human
Excerpt: On baseline (Day −1) and on the sixth day of each dosing period (Days 6, 12, and 18), the skin test sites were delineated on the subject's upper buttock between the beltline and the natal cleft on the right side. The right side of the buttock was divided into four different test sites, one site for 2×MED irradiation at baseline and each of the three dosing periods. Each test site was a minimum of 3 cm×3 cm. Subjects received 2×MED UV irradiation at baseline (Day −1) at approximately the same time that irradiation was scheduled on Days 6, 12, and 18, which was 2 hours postdose. Eight hours after UV irradiation (±10 minutes), a skin punch biopsy was taken from the UV exposure site. The biopsies were processed into tissue slides by a third party and analyzed by immunohistochemistry (IHC). This third party was blinded to the treatment periods (baseline and doses).
Phospho-c-Jun expression in biopsies was analyzed by IHC. Phospho-c-Jun IHC data were subjectively scored on a scale of 0 to 4 based on the intensity and number of epidermal keratinocyte nuclei stained within the tissue section by trained individuals blinded to treatment. The IHC was also analyzed by automated measurement of integrated optical density.
Phospho c-Jun immunohistochemistry (IHC) images were scored by 2 independent pathologists from Quintiles using a scoring scale of 0-4. The percentage of epithelial c-Jun positive nuclei was scored as follows: […]

C[C@@H]1CC[C@@H](Nc2nc(NC(C)(C)C)ncc2C(N)=O)C[C@H]1O [Compound 1, 2-(tert-butylamino)-4-((1R,3R,4R)-3-hydroxy-4-methylcyclohexylamino)-pyrimidine-5-carboxamide]
percentage of individuals showing either no change or a decrease in histopathology score (60 mg dose group (8/15)): 53% | percentage of individuals showing either no change or a decrease in histopathology score (160 mg dose group (10/14)): 71% | percentage of individuals showing either no change or a decrease in histopathology score (400 mg dose group (11/14)): 79% | change from baseline in median histopathology scores (60, 160, 400 mg QD×6 days, scale 0-4, 2 independent pathologists): not significantly affected
